From patent publication US4315032A, “Process for preparation of adjacently disubstituted ketones” (Teitin Limited, priority 1979, dated 1982)
Read-outs that look alike come from different tables or passages of the source.

Columns and labels:
[1] = tested on: ulcer formation induced by indomethacin; test: inhibiting action on the formation of ulcer in rats induced by indomethacin; type: in vivo, Male rats (Sprague Dawley species); details: indomethacin 20 mg/kg peroral, compound 0.5 × 2 mg/kg, S.C.; for Inhibiting rate (%): inhibition of ulcer formation
Protocol: By the method of Y. H. Lee et al. [Arch. Int. Pharmacodyn. Ther., 192, 370 (1971)], the inhibiting action of the compound No. 122 in Example 11 and compound No. 158 in Example 21 on the formation of ulcer in rats induced by indomethacin, a typical non-steroid anti-inflammatory agent, was evaluated.
Male rats (Sprague Dawley species; body weight 240-270 g) were used in the experiment. These rats had been caused to fast for 24 hours in separate cages before the initiation of the experiment. Indomethacin was orally administered to these rats, and 6 hours later, they were killed. Formation of ulcer in the fundus part was examined by measuring the area of the ulcer-forming part under a microscope. The compounds Nos. 122 and 158 were each subcutaneously administered at the end of 30 minutes and 2 hours, respectively, after the administration of indomethacin. The ulcer formation inhibiting rate of these compounds against a predetermined dose of indomethacin was determined.
The indomethacin was administered as a 0.5 ml aqueous suspension (containing two drops of a Tween-type nonionic surfactant per 14 ml of water). The compounds Nos. 122 and 158 were given in the form of a solution in a phosphate buffer (pH 7.4).

[2] = tested on: platelet aggregation (rabbit PRP); test: Activity of Inhibiting Platelet Aggregation In Vitro (rabbit PRP, ADP); type: cell-based; details: ADP-disodium salt 5 μM final, 37° C., 2 min pre-incubation, minimum concentration whose inhibiting rate exceeded 50%
Protocol: The platelet aggregation inhibiting activities of test compounds including 7-hydroxy PGE1 of this invention were tested using rabbit PRP. The results are shown in terms of their concentrations at 50% inhibition (IC50) of platelet aggregation. As an aggregating agent, ADP-disodiumsalt having a final concentration of 5 μM was used.
(1) Preparation of platelet-enriched plasma (PRP)
Citrated blood (consisting of 1 part by volume of […] sodium citrate and 9 parts by volume of the blood) was prepared by taking blood from the ear veins of male rabbits having a body weight of 2.0 to 3.0 kg (white ordinary species). The citrated blood was centrifuged at 100 G for 10 minutes at room temperature, and the supernatant (PRP) was separated.
The PRP obtained was stored at room temperature, and used as early as possible. PRP stored for more than 4 hours after preparation was not used.
(2) Preparation of test drugs
Each test drug was dissolved in ethyl alcohol to a concentration of 10 mg/ml or 1 mg/ml, and diluted with physiological saline to adjust its concentration.
(3) Preparation of the aggregating agent
ADP disodium salt (a product of Kyowa Hakko Kabushiki Kaisha) was dissolved in 0.1 M tris-HCl buffer (pH 7.8) to prepare a solution having a concentration of 50 μM (final concentration 5 μM).
(1) Degree of platelet aggregation in a blank
Physiological saline (25 μl) and 25 μl of the aggregating agent solution were added to 200 μl of PRP which had been warmed in a cuvette at 37° C. of an aggregometer to aggregate platelet. The aggregation curve was recorded for 3 minutes by an aggregometer (a product of Rika Denki Kabushiki Kaisha). The maximum degree of aggregation in this platelet aggregation was defined as the maximum degree of aggregation of the blank.
(2) Test for inhibition of platelet aggregation
The solution of test drug (25 μl) was added to 200 of PRP, and the mixture was pre-incubated for 2 minutes in a cuvette of an aggregometer. Then, 25 μl of the ADP disodium solution (50 μM) was added, and the aggregation curve was recorded for 3 minutes. The maximum degree of platelet aggregation within this period was measured, and the inhibiting rate was calculated from the following equation. The mimimum concentration (expressed as final concentration) of the drug whose inhibiting rate exceeded 50% was shown as an IC50 value. [formula]
For details of the in vitro platelet aggregation inhibiting test, see H. M. Davis, J. Phyllis, K. Paul and W. Terry: Thromb. Res. 11, 217-226 (1977) and R. E. Anderson and J. G. Foulks: Thromb. Haemos. 36, 343-359 (1976).

| Compound | Ulcer formation (ulcer coefficient) Average value ± S.E.M. [1] | Inhibiting rate (%) [1] [%] | IC50 [2] [µg/mL] | IC50 ([2]; Oryctolagus cuniculus, Platelet, read-out: IC50) [µg/mL] |
| --- | --- | --- | --- | --- |
| CCCCCC(O)/C=C/C1C(O)CC(=O)C1C(O)CCCCCC(=O)OC (stereo not drawn) [No. 122, 2-(1-hydroxy-7-keto-8-oxanonyl)-3-(3-hydroxy-1-trans-octenyl)-4-hydroxycyclopentanone] | 12.1 ± 4.1 | 40.4 | – | – |
| CCCCCC(O)/C=C/C1C(O)CC(=O)C1C(O)CCCCCC(=O)OC (stereo not drawn) [No. 144, dl 2-(1-hydroxy-7-keto-8-oxanonyl)-3-(3-hydroxy-1-trans-octenyl)-4-hydroxycyclopentanone] | – | – | > 10 | – |
| CCCCCC(O)/C=C/C1C(O)CC(=O)C1C(O)CCCCCC(=O)OC (stereo not drawn) [No. 146, dl 2-(1-hydroxy-7-keto-8-oxanonyl)-3-(3-hydroxy-1-trans-octenyl)-4-hydroxycyclopentanone] | – | – | 24.5 | – |
| CCCCCC(O)/C=C/C1C(O)CC(=O)C1C(O)CCCCCC(=O)OC (stereo not drawn) [No. 148, dl 2-(1-hydroxy-7-keto-8-oxanonyl)-3-(3-hydroxy-1-trans-octenyl)-4-hydroxycyclopentanone] | – | – | > 10 | – |
| CCCCCC(O)/C=C/C1C(O)CC(=O)C1C(O)CCCCCC(=O)OC (stereo not drawn) [No. 150, dl 2-(1-hydroxy-7-keto-8-oxanonyl)-3-(3-hydroxy-1-trans-octenyl)-4-hydroxycyclopentanone] | – | – | > 10 | – |
| CCCCC[C@H](O)/C=C/C1C(C(O)CCCCCC(=O)OC)C(=O)C[C@H]1O (stereo partly drawn) [No. 156, 2-(1-hydroxy-7-keto-8-oxanonyl)-3-[3(S)-hydroxy-1-trans-octenyl]-4(R)-hydroxycyclopentanone] | – | – | – | 26.3 |
| CCCCC[C@H](O)/C=C/C1C(C(O)CCCCCC(=O)OC)C(=O)C[C@H]1O (stereo partly drawn) [No. 158, 2-(1-hydroxy-7-keto-8-oxanonyl)-3-[3(S)-hydroxy-1-trans-octenyl]-4(R)-hydroxycyclopentanone] | 15.8 ± 5.1 | 22.2 | 41.5 | – |
